# Measurements taken from US6908912B2, “Pyrithione biocides enhanced by zinc metal ions and organic amines” (priority 1999, dated 2005).
# Values joined by “and” are separate entries in the source; they are usually repeats but may differ in a detail not shown here. Equal entries are not always repeated. Where two headings read alike, the source gives them in different places.
# Legend:
# [1] = Solubility and stability of concentrated mixtures of sodium pyrithione, ZnCl2 and organic amines (Example 55); conditions: for solubility and stability of mixture after 24 and 72 hours: mixtures of sodium pyrithione, ZnCl2 and the named amine
# [2] = tested on: Klebsiella pnenmoniae bacteria; conditions: cited from earlier work
# [3] = tested on: Fusarium sp. and Cephalosporium sp. metalworking fluid field isolates; experiment: Efficacy against fungi in diluted (1:20) metalworking fluids, flask test (Examples 1-40); format: cell-based
# [4] = tested on: Fusarium sp and Cephalosporium sp.; experiment: Culture tube test with formaldehyde releasing biocide, viable fungal counts (Example 52); format: cell-based, fungi
# [5] = tested on: Fusarium sp and Cephalosporium sp.; experiment: Prevention of fungal contamination of metalworking fluid, repeated challenge (Example 53); format: cell-based, fungi
# [6] = tested on: Pseudomonas aeruginosa 9027, Escherichia coli 8739, Pseudomonas fluorescens 12201, Pseudomonas rubescens 12202, and Pseudomonas putida; format: cell-based, bacteria
# [7] = tested on: Pseudomonas aeruginosa, Escherichia coli, Pseudomonas fluorescens, Pseudomonas rubescens, and Pseudomonas putida; format: cell-based, bacteria
# [8] = Blue discoloration of metalworking fluids in the presence of iron ions, visual inspection (Example 54); format: physicochemical
# [9] = Semi-Synthetic Fluid diluted 1:20, final 100 PPM NaPT, 21 PPM ZnCl2, 600 PPM amine or 1000 PPM Mixture as applicable
# [10] = Soluble Oil diluted 1:20, final 100 PPM NaPT, 21 PPM ZnCl2, 600 PPM amine or 1000 PPM Mixture as applicable
# [11] = Synthetic Fluid diluted 1:20, final 100 PPM NaPT, 21 PPM ZnCl2, 600 PPM amine or 1000 PPM Mixture as applicable
# [12] = Semi-synthetic MWF, Triazine 196 PPM ai TZ
# [13] = Semi-synthetic MWF, Triazine 393 PPM ai TZ
# [14] = Semi-synthetic MWF, Triazine 785 PPM ai TZ
molecule,measurement,setting,value
COCCCN [3-methoxypropylamine],solubility and stability of mixture after 24 and 72 hours,[1]; room temperature,soluble mixtures after 24 hours but not after 72 hours
"On1ccccc1=S [pyrithione, 1-hydroxy-2-pyridinethione]",activity against Klebsiella pnenmoniae bacteria,[2],favorable enhancement
zinc chloride [ZnCl2],Fungi/ml Day 1,[3],7.7 × 10^4 Fungi/ml and 5.9 × 10^4 Fungi/ml and 5.2 × 10^4 Fungi/ml
same,Fungi/ml Day 4,[3],4.3 × 10^4 Fungi/ml and 3.2 × 10^4 Fungi/ml and 3.1 × 10^4 Fungi/ml
"NCCCN [1,3-Diaminopropane]",Appearance at 24 Hrs,[1],S
same,Appearance at 72 Hrs,[1],S
NCCNCCN [Diethylenetriamine],Appearance at 24 Hrs,[1],S
same,Appearance at 72 Hrs,[1],S
"CCC(N)(CO)CO [2-Amino-2-ethyl-1,3-propanediol]",solubility and stability of mixture after 24 and 72 hours,[1]; room temperature,precipitates
"NCCO [MEA, monoethanolamine]",Fungi/ml Day 1,[3]; [9],4.3 × 10^4 Fungi/ml
same,Fungi/ml Day 4,[3]; [9],7.0 × 10^4 Fungi/ml
same,Fungi/ml Day 1,[3]; [10],2.9 × 10^4 Fungi/ml
same,Fungi/ml Day 4,[3]; [10],1.0 × 10^4 Fungi/ml
same,Fungi/ml Day 1,[3]; [11],4.7 × 10^4 Fungi/ml
same,Fungi/ml Day 4,[3]; [11],3.6 × 10^4 Fungi/ml
"OCCN1CN(CCO)CN(CCO)C1 [Triazine, hexahydro-1,3,5-tris(2-hydroxyethyl)-s-triazine]",Fungi/ml Day 3,"[4]; Soluble oil MWF, Triazine 49 PPM ai TZ",3.0 × 10^3 Fungi/ml
same,Fungi/ml Day 3,"[4]; Soluble oil MWF, Triazine 98 PPM ai TZ",1.1 × 10^3 Fungi/ml
same,Fungi/ml Day 3,"[4]; Soluble oil MWF, Triazine 196 PPM ai TZ",100 Fungi/ml
same,Fungi/ml Day 3,"[4]; Soluble oil MWF, Triazine 393 PPM ai TZ",0 Fungi/ml
same,Fungi/ml Day 3,"[4]; Soluble oil MWF, Triazine 589 PPM ai TZ",0 Fungi/ml
same,Fungi/ml Day 3,"[4]; Soluble oil MWF, Triazine 785 PPM ai TZ",0 Fungi/ml
same,Fungi/ml Week 4,[5]; [12],3.6 × 10^4 Fungi/ml
same,Fungi/ml Week 9,[5]; [12],6.2 × 10^4 Fungi/ml
same,Fungi/ml Week 4,[5]; [13],0 Fungi/ml
same,Fungi/ml Week 9,[5]; [13],70 Fungi/ml
same,Fungi/ml Week 4,[5]; [14],0 Fungi/ml
same,Fungi/ml Week 9,[5]; [14],0 Fungi/ml
CCCNCCO [Propylethanolamine],Appearance at 24 Hrs,"[1]; mixture of NaPT 10.00, ZnCl2 1.74, organic amine(s) 60.50, water 27.76 weight %, room temperature",S
sodium pyrithione [NaPT],Bacteria/ml Day 1,[6],4.0 × 10^5 Bacteria/ml and 5.2 × 10^6 Bacteria/ml and 4.3 × 10^6 Bacteria/ml
same,Bacteria/ml Day 4,[6],3.0 × 10^5 Bacteria/ml and 3.7 × 10^7 Bacteria/ml and 6.0 × 10^6 Bacteria/ml
same,Fungi/ml Day 1,[3],5.1 × 10^4 Fungi/ml and 7.0 × 10^4 Fungi/ml and 5.7 × 10^4 Fungi/ml
same,Fungi/ml Day 3,[4],7.7 × 10^4 Fungi/ml and 4.1 × 10^4 Fungi/ml
same,Bacteria/ml Week 4,[7],3.2 × 10^6 Bacteria/ml
same,Bacteria/ml Week 9,[7],6.1 × 10^6 Bacteria/ml
same,Fungi/ml Week 4,[5],8.9 × 10^4 Fungi/ml
same,Fungi/ml Week 9,[5],5.6 × 10^4 Fungi/ml
same,Initial Blue Color,[8],light and dark and blue
NCCOCCO [2(2-Aminoethoxy)ethanol],solubility and stability of mixture after 24 and 72 hours,[1]; room temperature,precipitates
CC(O)CNCC(C)O (stereo not drawn) [Diisopropanolamine],solubility and stability of mixture after 24 and 72 hours,[1]; room temperature,precipitates
1-amino-2-propanol [Mixture 1A2P],Fungi/ml Day 1,[3]; [9],4.7 × 10^4 Fungi/ml
same,Fungi/ml Day 4,[3]; [9],5.0 × 10^4 Fungi/ml
same,Fungi/ml Day 1,[3]; [10],4.6 × 10^4 Fungi/ml
same,Fungi/ml Day 4,[3]; [10],2.5 × 10^4 Fungi/ml
same,Fungi/ml Day 1,[3]; [11],5.5 × 10^4 Fungi/ml
same,Fungi/ml Day 4,[3]; [11],3.6 × 10^4 Fungi/ml
